The subject of experiment [1] is Mycobacterium tuberculosis. Nature of the experiment: Growth inhibition of Mycobacterium tuberculosis H37Rv at >[…]. The experiment is classed as functional.
The test system of a further experiment is Streptococcus pneumoniae. Nature of the experiment: Antibacterial activity against Streptococcus pneumoniae MTCC 1936 by macrobroth dilution assay. The experiment is classed as functional.
Another experiment concerns Vibrio cholerae. As to the kind of experiment: Antibacterial activity against Vibrio cholerae MTCC 3906 by macrobroth dilution assay. The experiment is classed as functional. (In general: Dilution methods test growth across graded concentrations, often in twofold steps.)
A further experiment concerns Escherichia coli. Nature of the experiment: Antibacterial activity against Escherichia coli MTCC 443 by macrobroth dilution assay. The experiment is classed as functional.
For another experiment, the system named is Salmonella typhi. Nature of the experiment: Antibacterial activity against Salmonella typhi MTCC 98 by macrobroth dilution assay. In kind it is functional, Salmonella enterica subsp. enterica serovar Typhi. As to conditions: Salmonella enterica.
The subject of the next experiment is Bacillus subtilis. Nature of the experiment: Antibacterial activity against Bacillus subtilis MTCC 441 by macrobroth dilution assay. The experiment is classed as functional.
Another experiment has as its system Clostridium tetani. Nature of the experiment: Antibacterial activity against Clostridium tetani MTCC 449 by macrobroth dilution assay. The experiment is classed as functional.
For another experiment, the system named is Candida albicans. Nature of the experiment: Antifungal activity against Candida albicans MTCC 227 by macrobroth dilution assay. The experiment is classed as functional.
The subject of experiment [2] is Mycobacterium tuberculosis. Nature of the experiment: Growth inhibition of Mycobacterium tuberculosis H37Rv at 250 ug/mL. In kind it is functional. As to conditions: read-out: GI.
In the next experiment the test system is Aspergillus fumigatus. As to the kind of experiment: Antifungal activity against Aspergillus fumigatus MTCC 3008 by macrobroth dilution assay. The experiment is classed as functional.
Experiment [3] deals with Mycobacterium tuberculosis. As to the kind of experiment: Growth inhibition of Mycobacterium tuberculosis H37Rv at 0.2 ug/mL. The experiment is classed as functional. As to conditions: read-out: GI.

≈ marks a conversion by molar mass, not a printed value. A value given as a limit tells only on which side of the number the result lay.

Consider `Cc1ncc([N+](=O)[O-])n1CCO` [METRONIDAZOLE], for which the “growth inhibition (GI)” value in [1] was found to be 99%.

In general, MIC refers to the smallest concentration in the dilution series that meets the test's criterion for growth inhibition. Read a low MIC as a more susceptible organism. As for `O=C(N[C@H](CO)[C@H](O)c1ccc([N+](=O)[O-])cc1)C(Cl)Cl` [CHLORAMPHENICOL], the MIC in the experiment on Streptococcus pneumoniae, against Vibrio cholerae, in the experiment on Escherichia coli, in the experiment with Salmonella typhi, in the experiment with Bacillus subtilis and against Clostridium tetani was 50 µg/mL (≈ 155 µM) in each case.

`CCCCOC(=O)[C@H]1C[C@@H]2COc3ccc(/N=N/c4ccccc4)cc3[C@@H]2N1CC`: the MIC was more than 250 µg/mL in the experiment with Streptococcus pneumoniae; 200 µg/mL (≈ 491 µM) against Candida albicans; more than 250 µg/mL against Vibrio cholerae; 200 µg/mL (≈ 491 µM) in the experiment on Escherichia coli; 100 µg/mL (≈ 245 µM) with Salmonella typhi; 100 µg/mL (≈ 245 µM) in the experiment with Bacillus subtilis. Further, the MIC with Clostridium tetani is 250 µg/mL (≈ 613 µM); against Aspergillus fumigatus, more than 250 µg/mL. Also, in experiment [2], the inhibition of growth at 250 µg/mL is 68%.

As for `CCCCOC(=O)[C@H]1C[C@@H]2COc3ccc(/N=N/c4ccccc4)cc3[C@@H]2N1C`, the MIC in the experiment with Streptococcus pneumoniae is 250 µg/mL (≈ 635 µM); with Candida albicans, more than 250 µg/mL; in the experiment on Vibrio cholerae, 200 µg/mL (≈ 508 µM); in the experiment with Escherichia coli, 250 µg/mL (≈ 635 µM); in the experiment on Salmonella typhi, 250 µg/mL (≈ 635 µM); in the experiment on Bacillus subtilis it was 50 µg/mL (≈ 127 µM). For the same compound, the MIC was 100 µg/mL (≈ 254 µM) in the experiment on Clostridium tetani and more than 250 µg/mL in the experiment with Aspergillus fumigatus. Further, the inhibition of growth at 250 µg/mL in [2] was found to be 25%.

In the case of `CCCOC(=O)[C@H]1C[C@@H]2COc3ccc(/N=N/c4ccccc4)cc3[C@@H]2N1Cc1ccccc1`, the MIC against Streptococcus pneumoniae came out at 200 µg/mL (≈ 439 µM); against Candida albicans, 250 µg/mL (≈ 549 µM); against Vibrio cholerae, 100 µg/mL (≈ 220 µM); against Escherichia coli, 250 µg/mL (≈ 549 µM); against Salmonella typhi it was 250 µg/mL (≈ 549 µM); against Bacillus subtilis, 250 µg/mL (≈ 549 µM). In addition, the MIC in the experiment on Clostridium tetani was 250 µg/mL (≈ 549 µM); against Aspergillus fumigatus, more than 250 µg/mL. For the same compound, the inhibition of growth at 250 µg/mL in [2] stood at 84%.

Take `CCCOC(=O)[C@H]1C[C@@H]2COc3ccc(/N=N/c4ccccc4)cc3[C@@H]2N1CC`: the MIC in the experiment on Streptococcus pneumoniae is more than 250 µg/mL; against Candida albicans it was more than 250 µg/mL; with Vibrio cholerae it was 100 µg/mL (≈ 254 µM); in the experiment with Escherichia coli it was 50 µg/mL (≈ 127 µM); against Salmonella typhi, 100 µg/mL (≈ 254 µM); in the experiment on Bacillus subtilis it was 200 µg/mL (≈ 508 µM). The MIC in the experiment on Clostridium tetani is 200 µg/mL (≈ 508 µM); in the experiment with Aspergillus fumigatus, more than 250 µg/mL. Further, the inhibition of growth at 250 µg/mL in experiment [2] worked out at 95%.

For `CC1(C)S[C@@H]2[C@H](NC(=O)[C@H](N)c3ccccc3)C(=O)N2[C@H]1C(=O)O` [AMPICILLIN], the MIC amounted to 100 µg/mL (≈ 286 µM) with Streptococcus pneumoniae; 100 µg/mL (≈ 286 µM) in the experiment on Vibrio cholerae; 100 µg/mL (≈ 286 µM) in the experiment with Escherichia coli; 100 µg/mL (≈ 286 µM) in the experiment with Salmonella typhi; 250 µg/mL (≈ 715 µM) in the experiment with Bacillus subtilis; 250 µg/mL (≈ 715 µM) against Clostridium tetani.

Take `COC1=CC(=O)C[C@@H](C)[C@]12Oc1c(Cl)c(OC)cc(OC)c1C2=O` [GRISEOFULVIN]: the MIC is 500 µg/mL (≈ 1420 µM) against Candida albicans and 100 µg/mL (≈ 283 µM) against Aspergillus fumigatus.

Regarding `CCCOC(=O)[C@H]1C[C@@H]2COc3ccc(/N=N/c4ccccc4)cc3[C@@H]2N1C`, the MIC with Streptococcus pneumoniae is 250 µg/mL (≈ 659 µM); with Candida albicans, more than 250 µg/mL; in the experiment with Vibrio cholerae, 250 µg/mL (≈ 659 µM); against Escherichia coli, 250 µg/mL (≈ 659 µM); against Salmonella typhi, 250 µg/mL (≈ 659 µM); in the experiment on Bacillus subtilis, 250 µg/mL (≈ 659 µM). In addition, the MIC against Clostridium tetani and in the experiment with Aspergillus fumigatus was more than 250 µg/mL each time. Further, the inhibition of growth at 250 µg/mL in [2] was 41%.

As for `CCn1cc(C(=O)O)c(=O)c2cc(F)c(N3CCNCC3)cc21` [NORFLOXACIN], the MIC against Streptococcus pneumoniae was found to be 10 µg/mL (≈ 31.3 µM); against Vibrio cholerae, 10 µg/mL (≈ 31.3 µM); in the experiment with Escherichia coli, 10 µg/mL (≈ 31.3 µM); against Salmonella typhi, 10 µg/mL (≈ 31.3 µM); against Bacillus subtilis, 100 µg/mL (≈ 313 µM); with Clostridium tetani, 50 µg/mL (≈ 157 µM).

Take NYSTATIN: the MIC with Candida albicans and with Aspergillus fumigatus was 100 µg/mL throughout.

With `NNC(=O)c1ccncc1` [ISONIAZID], the inhibition of growth at 0.2 µg/mL in [3] stood at 99%.

For `CCOC(=O)[C@H]1C[C@@H]2COc3ccc(/N=N/c4ccccc4)cc3[C@@H]2N1Cc1ccccc1`, the MIC is 250 µg/mL (≈ 566 µM) in the experiment with Streptococcus pneumoniae; more than 250 µg/mL in the experiment with Candida albicans; 200 µg/mL (≈ 453 µM) in the experiment on Vibrio cholerae; more than 250 µg/mL against Escherichia coli; more than 250 µg/mL in the experiment on Salmonella typhi; 250 µg/mL (≈ 566 µM) in the experiment with Bacillus subtilis. For the same compound, the values for the MIC with Clostridium tetani and with Aspergillus fumigatus were 200 µg/mL (≈ 453 µM) and more than 250 µg/mL, respectively. In addition, the inhibition of growth at 250 µg/mL in [2] came to 20%.

On to `CCN1[C@@H](C(=O)OC)C[C@@H]2COc3ccc(/N=N/c4ccccc4)cc3[C@@H]21`, for which the MIC was 200 µg/mL (≈ 547 µM) with Streptococcus pneumoniae; more than 250 µg/mL in the experiment on Candida albicans; more than 250 µg/mL against Vibrio cholerae; 200 µg/mL (≈ 547 µM) in the experiment on Escherichia coli; more than 250 µg/mL in the experiment with Salmonella typhi; 200 µg/mL (≈ 547 µM) against Bacillus subtilis. For the same compound, the MIC in the experiment with Clostridium tetani and against Aspergillus fumigatus was more than 250 µg/mL throughout. The inhibition of growth at 250 µg/mL in experiment [2] was found to be 55%.

Turning to `COC(=O)[C@H]1C[C@@H]2COc3ccc(/N=N/c4ccccc4)cc3[C@@H]2N1Cc1ccccc1`, the MIC against Streptococcus pneumoniae is 250 µg/mL (≈ 585 µM); against Candida albicans it was 200 µg/mL (≈ 468 µM); against Vibrio cholerae it was more than 250 µg/mL; in the experiment on Escherichia coli, 125 µg/mL (≈ 292 µM); with Salmonella typhi, 250 µg/mL (≈ 585 µM); against Bacillus subtilis, 250 µg/mL (≈ 585 µM). In addition, the values for the MIC against Clostridium tetani and against Aspergillus fumigatus were 200 µg/mL (≈ 468 µM) and more than 250 µg/mL, respectively. Moreover, the inhibition of growth at 250 µg/mL in experiment [2] worked out at 87%.

As for `CCOC(=O)[C@H]1C[C@@H]2COc3ccc(/N=N/c4ccccc4)cc3[C@@H]2N1C`, the minimal inhibitory concentration (MIC) with Streptococcus pneumoniae was 250 µg/mL (≈ 684 µM); against Candida albicans it was more than 250 µg/mL; against Vibrio cholerae, 125 µg/mL (≈ 342 µM); with Escherichia coli it was 50 µg/mL (≈ 137 µM); in the experiment with Salmonella typhi, 50 µg/mL (≈ 137 µM); with Bacillus subtilis it was more than 250 µg/mL. The MIC in the experiment with Clostridium tetani was 200 µg/mL (≈ 547 µM); in the experiment with Aspergillus fumigatus, more than 250 µg/mL. Also, the inhibition of growth at 250 µg/mL in [2] came to 64%.

Consider `CCCCOC(=O)[C@H]1C[C@@H]2COc3ccc(/N=N/c4ccccc4)cc3[C@@H]2N1Cc1ccccc1`, for which the MIC with Streptococcus pneumoniae is 25 µg/mL (≈ 53.2 µM); against Candida albicans it was more than 250 µg/mL; against Vibrio cholerae, 250 µg/mL (≈ 532 µM); with Escherichia coli, 200 µg/mL (≈ 426 µM); in the experiment with Salmonella typhi, 100 µg/mL (≈ 213 µM); with Bacillus subtilis, 250 µg/mL (≈ 532 µM). Besides, the MIC in the experiment on Clostridium tetani and against Aspergillus fumigatus was more than 250 µg/mL in each case. Besides, the inhibition of growth at 250 µg/mL in experiment [2] is 90%.

For `O=C(O)c1cn(C2CC2)c2cc(N3CCNCC3)c(F)cc2c1=O` [CIPROFLOXACIN], the MIC against Streptococcus pneumoniae was determined as 50 µg/mL (≈ 151 µM); in the experiment with Vibrio cholerae, 25 µg/mL (≈ 75.4 µM); against Escherichia coli it was 25 µg/mL (≈ 75.4 µM); in the experiment with Salmonella typhi, 25 µg/mL (≈ 75.4 µM).

Consider `CCOC(=O)[C@H]1C[C@@H]2COc3ccc(/N=N/c4ccccc4)cc3[C@@H]2N1CC`, for which the MIC was 100 µg/mL (≈ 264 µM) in the experiment with Streptococcus pneumoniae; more than 250 µg/mL in the experiment on Candida albicans; 250 µg/mL (≈ 659 µM) in the experiment on Vibrio cholerae; more than 250 µg/mL against Escherichia coli; 250 µg/mL (≈ 659 µM) with Salmonella typhi; more than 250 µg/mL with Bacillus subtilis. In addition, the minimal inhibitory concentration (MIC) with Clostridium tetani and with Aspergillus fumigatus was 250 µg/mL (≈ 659 µM) throughout. For the same compound, in experiment [2], the inhibition of growth at 250 µg/mL is 98%.

`COC(=O)[C@H]1C[C@@H]2COc3ccc(/N=N/c4ccccc4)cc3[C@@H]2N1C`: the MIC worked out at 125 µg/mL (≈ 356 µM) against Streptococcus pneumoniae; 250 µg/mL (≈ 711 µM) with Candida albicans; 100 µg/mL (≈ 285 µM) in the experiment with Vibrio cholerae; 200 µg/mL (≈ 569 µM) against Escherichia coli; 200 µg/mL (≈ 569 µM) in the experiment on Salmonella typhi; 125 µg/mL (≈ 356 µM) in the experiment on Bacillus subtilis. Moreover, the MIC in the experiment with Clostridium tetani and in the experiment with Aspergillus fumigatus was more than 250 µg/mL throughout. Besides, the inhibition of growth at 250 µg/mL in experiment [2] is 72%.

Source of the values: ChEMBL document CHEMBL2029281, “An improved microwave assisted one-pot synthesis, and biological investigations of some novel aryldiazenyl chromeno fused pyrrolidines” (2012).
